Measurements as given in the supplement of paper PMC11061612.

Key:
Test in all cases: Bliss excess, mean over the matrix (fraction); higher = more synergy
42-MG-BA (Glioblastoma) = tested on: 42-MG-BA (Glioblastoma)
Summary of the method: (§1)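 Bliss excess equals the observed combination effect minus the expected value EA + EB − EA·EB, where EA and EB are the effects of each agent alone. Combination Emax is the second-highest inhibition within the matrix. Inhibition was scaled from CellTiter-Glo 2.0 luminescence, with 0 set by vehicle wells and 1 by blank wells, after 72 hours of two-drug dosing of cells plated in 1536-well plates.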

AGS (Gastric Carcinoma) = tested on: AGS (Gastric Carcinoma)
Summary of the method: as §1

[1] = tested on: COLO-205 (Colorectal Carcinoma)
Summary of the method: as §1

[2] = tested on: DEL (T-Cell Non-Hodgkin's Lymphoma)
Summary of the method: as §1

[3] = tested on: DoTc2-4510 (Cervical Carcinoma)
Summary of the method: as §1

[4] = tested on: EC-GI-10 (Esophageal Squamous Cell Carcinoma)
Summary of the method: as §1

ES4 (Ewing's Sarcoma) = tested on: ES4 (Ewing's Sarcoma)
Summary of the method: as §1

[5] = tested on: HCC-78 (Lung Adenocarcinoma)
Summary of the method: as §1

[6] = tested on: HO-1-N-1 (Oral Cavity Carcinoma)
Summary of the method: as §1

[7] = tested on: LU-135 (Small Cell Lung Carcinoma)
Summary of the method: as §1

[8] = tested on: ME-1 (Acute Myeloid Leukemia)
Summary of the method: as §1

[9] = tested on: NCI-H82 (Small Cell Lung Carcinoma)
Summary of the method: as §1

[10] = tested on: Ramos-2G6-4C10 (Burkitt's Lymphoma)
Summary of the method: as §1

[11] = tested on: SK-ES-1 (Ewing's Sarcoma)
Summary of the method: as §1

[12] = tested on: SNU-5 (Gastric Carcinoma)
Summary of the method: as §1

T98G (Glioblastoma) = tested on: T98G (Glioblastoma)
Summary of the method: as §1

[13] = tested on: TCCSUP (Bladder Carcinoma)
Summary of the method: as §1

[14] = tested on: TE-15 (Esophageal Squamous Cell Carcinoma)
Summary of the method: as §1

[15] = tested on: TE-9 (Esophageal Squamous Cell Carcinoma)
Summary of the method: as §1

[16] = tested on: UM-UC-3 (Bladder Carcinoma)
Summary of the method: as §1

Row | Compound | Bliss excess (42-MG-BA (Glioblastoma)) | Bliss excess (AGS (Gastric Carcinoma)) | Bliss excess [1] | Bliss excess [2] | Bliss excess [3] | Bliss excess [4] | Bliss excess (ES4 (Ewing's Sarcoma)) | Bliss excess [5] | Bliss excess [6] | Bliss excess [7] | Bliss excess [8] | Bliss excess [9] | Bliss excess [10] | Bliss excess [11] | Bliss excess [12] | Bliss excess (T98G (Glioblastoma)) | Bliss excess [13] | Bliss excess [14] | Bliss excess [15] | Bliss excess [16]
1 | COc1cccc(OCCCN)c1-c1cc(Nc2cnc(C#N)cn2)n[nH]1 [Prexasertib] + C[C@@H]1COCCN1C2=NC(=NC(=C2)C3(CC3)[S@](=N)(=O)C)C4=C5C=CNC5=NC=C4 [AZD6738] (first compound max 1 µM, 7x7, partner max 10 µM) | -0.0994 | 0.0164 | 0.0369 | 0.001 | -0.0218 | 0.0193 | -0.0489 | 0.0318 | 0.0115 | 0.0442 | 0.0637 | -0.0186 | -0.0191 | -0.0132 | -0.0371 | 0.0453 | -0.0245 | -0.0395 | -0.0233 | 0.0563
2 | Cc1cc2ncnn2cc1Nc1ncc2c(n1)n(C1CCOCC1)c(=O)n2C [AZD7648] + O=C(c1cc(Cc2n[nH]c(=O)c3ccccc23)ccc1F)N1CCN(C(=O)C2CC2)CC1 [Olaparib] (first compound max 10 µM, 7x7, partner max 10 µM) | 0.0303 | -0.007 | -0.0345 | 0.0174 | -0.0428 | -0.0478 | 0.0132 | -0.0133 | 0.0099 | 0.0148 | -0.004 | -0.0382 | -0.0281 | 0.0254 | -0.0316 | -0.0965 | -0.0465 | -0.0399 | -0.0264 | -0.0297
3 | CCN(CCO)CCCOc1ccc2c(Nc3cc(CC(=O)Nc4cccc(F)c4)[nH]n3)ncnc2c1 [AZD2811] + O=C(c1cc(Cc2n[nH]c(=O)c3ccccc23)ccc1F)N1CCN(C(=O)C2CC2)CC1 [Olaparib] (first compound max 1 µM, 7x7, partner max 10 µM) | 0.009 | 0.0484 | 0.0075 | 0.0328 | 0.0035 | 0.0377 | -0.0138 | 0.0013 | -0.0329 | -0.0632 | 0.0119 | 0.022 | 0.0573 | -0.0075 | -0.0237 | 0.0112 | 0.0238 | -0.0125 | -0.0111 | 0.0332
4 | COc1cccc(OCCCN)c1-c1cc(Nc2cnc(C#N)cn2)n[nH]1 [Prexasertib] + O=C(c1cc(Cc2n[nH]c(=O)c3ccccc23)ccc1F)N1CCN(C(=O)C2CC2)CC1 [Olaparib] (first compound max 1 µM, 7x7, partner max 10 µM) | -0.0399 | 0.0033 | -0.0301 | 0.0035 | -0.0041 | -0.0253 | -0.0699 | -0.0733 | 0.0205 | -0.0079 | -0.0619 | -0.0735 | -0.0875 | 0.0008 | -0.0633 | -0.134 | -0.006 | -0.0427 | -0.0425 | -0.0015
5 | CS(=O)(=O)CCNCc1ccc(-c2ccc3ncnc(Nc4ccc(OCc5cccc(F)c5)c(Cl)c4)c3c2)o1 [Lapatinib] + C[C@@H](Oc1cc(-c2cnn(C3CCNCC3)c2)cnc1N)c1c(Cl)ccc(F)c1Cl [Crizotinib] (first compound max 10 µM, 7x7, partner max 10 µM) | -0.0709 | 0.0118 | -0.0261 | 0.0074 | -0.0321 | -0.0379 | -0.0261 | -0.0289 | -0.0493 | 0.0255 | -0.0344 | -0.0273 | -0.113 | -0.0015 | 0.0306 | -0.0861 | -0.0611 | -0.0148 | -0.0194 | -0.0739
6 | COc1nnc2ccc(N3CCC(c4ccc(OCCN5CCN(C)C(=O)[C@H]5C)cc4)CC3)nn12 [AZD5153] + C[C@@H]1COCCN1C2=NC(=NC(=C2)C3(CC3)[S@](=N)(=O)C)C4=C5C=CNC5=NC=C4 [AZD6738] (first compound max 1 µM, 7x7, partner max 10 µM) | -0.0155 | 0.0381 | -0.0115 | 0.0007 | 0.0412 | 0.0203 | 0.0104 | -0.0235 | 0.01 | 0.0397 | -0.0693 | -0.0906 | -0.0534 | 0.0023 | -0.0128 | -0.0206 | -0.0327 | -0.0096 | 0.0039 | 0.0647
7 | Cn1cnc2c(F)c(Nc3ccc(Br)cc3Cl)c(C(=O)NOCCO)cc21 [Selumetinib] + CC(C)n1c(=O)n(C)c2cnc3cc(F)c(-c4ccc(OCCCN5CCCCC5)nc4)cc3c21 [AZD1390] (first compound max 10 µM, 7x7, partner max 0.3 µM) | -0.0321 | -0.0446 | -0.0209 | 0.0087 | -0.0401 | -0.0359 | -0.0515 | -0.0313 | 0.0053 | -0.0318 | 0.0338 | -0.0349 | -0.0211 | -0.0246 | 0.0649 | -0.0125 | -0.0588 | -0.0359 | -0.0228 | -0.0205
8 | COc1cc2c(cc1OCCCCCOc1cc3c(cc1OC)C(=O)N1C=C(C)C[C@H]1C=N3)N=C[C@@H]1CC(C)=CN1C2=O [SG3199] + O=C(c1cc(Cc2n[nH]c(=O)c3ccccc23)ccc1F)N1CCN(C(=O)C2CC2)CC1 [Olaparib] (first compound max 0.001 µM, 7x7, partner max 10 µM) | 0.0075 | -0.0061 | -0.0256 | 0.0108 | -0.0123 | -0.011 | -0.0097 | -0.0294 | -0.0138 | 0.0232 | -0.013 | -0.0075 | -0.0122 | -0.0326 | -0.0105 | -0.0486 | -0.0281 | -0.0307 | -0.0269 | -0.0308
9 | C[C@@H]1COCCN1c1cc(C2([S@](C)(=N)=O)CC2)nc(-c2ccnc3[nH]ccc23)n1 [AZD6738] + O=C(c1cc(Cc2n[nH]c(=O)c3ccccc23)ccc1F)N1CCN(C(=O)C2CC2)CC1 [Olaparib] (first compound max 10 µM, 7x7, partner max 10 µM) | 0.0142 | -0.0108 | 0.0205 | 0.0399 | 0.0652 | -0.0147 | 0.0608 | 0.0171 | -0.0196 | 0.0331 | -0.0056 | -0.0194 | -0.0881 | 0.0804 | -0.0464 | -0.0192 | 0.067 | -0.0465 | 0.0403 | 0.0829
10 | CN(CCO)CC[C@H](CSc1ccccc1)Nc1ccc(S(=O)(=O)NC(=O)c2ccc(N3CCC([C@@H](O)c4ccccc4-c4ccc(Cl)cc4)CC3)cc2)cc1S(=O)(=O)C(F)(F)F [AZD4320] + C[C@@H](Nc1cc(F)cc(F)c1)c1cc(C(=O)N(C)C)cc2c(=O)cc(N3CCOCC3)oc12 [AZD8186] (first compound max 1 µM, 7x7, partner max 3 µM) | 0.0453 | 0.018 | -0.0302 | 0.0784 | 0.0252 | 0.0191 | -0.0507 | 0.003 | 0.0421 | 0.0404 | 0.0013 | 0.0359 | 0.175 | 0.0521 | 0.0726 | 0.0151 | -0.0348 | -0.0335 | 0.0165 | 0.0327
11 | CN(CCO)CC[C@H](CSc1ccccc1)Nc1ccc(S(=O)(=O)NC(=O)c2ccc(N3CCC([C@@H](O)c4ccccc4-c4ccc(Cl)cc4)CC3)cc2)cc1S(=O)(=O)C(F)(F)F [AZD4320] + C=CCn1c(=O)c2cnc(Nc3ccc(N4CCN(C)CC4)cc3)nc2n1-c1cccc(C(C)(C)O)n1 [AZD1775] (first compound max 1 µM, partner max 1 µM) | -0.027 | 0.0191 | 0.0243 | 0.0464 | 0.0205 | -0.0597 | 0.12 | -0.0072 | -0.0023 | 0.0636 | 0.0475 | 0.0113 | 0.0808 | 0.093 | 0.0426 | 0.0317 | 0.0373 | -0.0137 | 0.0368 | -0.0064
12 | COc1nnc2ccc(N3CCC(c4ccc(OCCN5CCN(C)C(=O)[C@H]5C)cc4)CC3)nn12 [AZD5153] + Cn1cnc2c(F)c(Nc3ccc(Br)cc3Cl)c(C(=O)NOCCO)cc21 [Selumetinib] (first compound max 1 µM, 7x7, partner max 10 µM) | -0.0245 | 0.0163 | 0.0422 | -0.0896 | -0.0002 | 0.0858 | -0.0697 | 0.0035 | 0.0226 | -0.0138 | -0.0302 | -0.0771 | -0.0465 | -0.0188 | -0.0254 | 0.0403 | -0.0264 | 0.0225 | -0.0161 | 0.113
13 | CC1(C)CCC(CN2CCN(c3ccc(C(=O)NS(=O)(=O)c4ccc(NCC5CCOCC5)c([N+](=O)[O-])c4)c(Oc4cnc5[nH]ccc5c4)c3)CC2)=C(c2ccc(Cl)cc2)C1 [Venetoclax] + Cc1cc2ncnn2cc1Nc1ncc2c(n1)n(C1CCOCC1)c(=O)n2C [AZD7648] (first compound max 1 µM, 7x7, partner max 10 µM) | -0.0013 | -0.0505 | -0.0584 | 0.0365 | -0.0413 | 0.038 | -0.0452 | -0.017 | 0.0318 | -0.087 | 0.0319 | -0.0227 | 0.0435 | 0.0203 | -0.0063 | -0.0693 | -0.0444 | -0.0519 | -0.0175 | -0.0325
14 | CC(=O)Nc1cccc(-n2c(=O)n(C3CC3)c(=O)c3c(Nc4ccc(I)cc4F)n(C)c(=O)c(C)c32)c1 [Trametinib] + Cc1nc(-c2cn3c(n2)-c2ccc(-c4cnn(C(C)(C)C(N)=O)c4)cc2OCC3)n(C(C)C)n1 [Taselisib] (first compound max 1 µM, 7x7, partner max 10 µM) | 0.0593 | 0.122 | 0.0229 | 0.166 | 0.143 | 0.112 | 0.0891 | 0.0913 | 0.268 | 0.113 | 0.118 | 0.0361 | -0.0053 | 0.0641 | 0.141 | 0.0822 | 0.0896 | 0.0816 | 0.073 | 0.137
